Laboratory results as given in ChEMBL document CHEMBL5715260, “Selectivity Literature for EUbOPEN Chemogenomic Library” (2024).
Values belong to the compound of their own block, whether it stands above or below them.

How the values were obtained:
Set-up in all cases: recommended concentration 1 uM
[1] = target: Steroidogenic factor 1 (Homo sapiens) (UniProt Q13285); assay: Selectivity interaction (Reporter gene assay) EUB0000566a NR5A1
[2] = target: Nuclear receptor subfamily 4immunitygroup A member 1 (Homo sapiens) (UniProt P22736); assay: Selectivity interaction (Reporter gene assay) EUB0000566a NR4A1
Sequence of Nuclear receptor subfamily 4immunitygroup A member 1 (Homo sapiens) (P22736 whole entry): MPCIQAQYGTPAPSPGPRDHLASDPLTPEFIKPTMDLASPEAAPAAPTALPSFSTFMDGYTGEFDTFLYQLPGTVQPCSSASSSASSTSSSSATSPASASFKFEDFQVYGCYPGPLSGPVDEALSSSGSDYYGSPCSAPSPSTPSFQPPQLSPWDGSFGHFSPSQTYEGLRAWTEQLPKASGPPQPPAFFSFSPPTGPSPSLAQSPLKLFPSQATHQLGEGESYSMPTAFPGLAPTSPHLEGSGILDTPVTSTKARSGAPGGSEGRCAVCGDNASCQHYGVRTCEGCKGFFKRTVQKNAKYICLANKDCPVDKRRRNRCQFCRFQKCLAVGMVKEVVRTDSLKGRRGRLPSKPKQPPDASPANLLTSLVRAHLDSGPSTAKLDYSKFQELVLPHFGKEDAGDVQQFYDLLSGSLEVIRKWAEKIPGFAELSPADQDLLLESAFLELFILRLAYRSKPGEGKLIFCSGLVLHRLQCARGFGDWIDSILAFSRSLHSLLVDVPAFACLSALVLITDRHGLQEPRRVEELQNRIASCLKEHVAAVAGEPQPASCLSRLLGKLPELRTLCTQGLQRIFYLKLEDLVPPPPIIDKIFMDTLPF

[3] = target: T1, Retinoic acid receptor RXR-alpha (Homo sapiens) (UniProt P19793); assay: Selectivity interaction (Reporter gene assay) EUB0000566a RXRA
T1 sequence (whole entry): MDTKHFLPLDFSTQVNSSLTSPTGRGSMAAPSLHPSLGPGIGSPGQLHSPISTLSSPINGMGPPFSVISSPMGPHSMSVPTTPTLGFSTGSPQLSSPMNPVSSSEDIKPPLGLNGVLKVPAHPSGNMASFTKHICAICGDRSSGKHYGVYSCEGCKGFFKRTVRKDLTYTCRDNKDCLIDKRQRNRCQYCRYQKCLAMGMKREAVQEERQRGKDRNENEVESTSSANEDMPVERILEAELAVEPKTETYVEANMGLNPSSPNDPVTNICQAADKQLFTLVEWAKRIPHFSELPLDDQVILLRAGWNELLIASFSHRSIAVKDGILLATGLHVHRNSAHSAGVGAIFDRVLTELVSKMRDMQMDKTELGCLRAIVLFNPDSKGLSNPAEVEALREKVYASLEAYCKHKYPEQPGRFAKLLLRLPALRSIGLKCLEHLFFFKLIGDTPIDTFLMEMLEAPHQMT

[4] = target: T2, Hepatocyte nuclear factor 4-alpha (Homo sapiens) (UniProt P41235); assay: Selectivity interaction (Reporter gene assay) EUB0000566a HNF4A
T2 sequence (whole entry): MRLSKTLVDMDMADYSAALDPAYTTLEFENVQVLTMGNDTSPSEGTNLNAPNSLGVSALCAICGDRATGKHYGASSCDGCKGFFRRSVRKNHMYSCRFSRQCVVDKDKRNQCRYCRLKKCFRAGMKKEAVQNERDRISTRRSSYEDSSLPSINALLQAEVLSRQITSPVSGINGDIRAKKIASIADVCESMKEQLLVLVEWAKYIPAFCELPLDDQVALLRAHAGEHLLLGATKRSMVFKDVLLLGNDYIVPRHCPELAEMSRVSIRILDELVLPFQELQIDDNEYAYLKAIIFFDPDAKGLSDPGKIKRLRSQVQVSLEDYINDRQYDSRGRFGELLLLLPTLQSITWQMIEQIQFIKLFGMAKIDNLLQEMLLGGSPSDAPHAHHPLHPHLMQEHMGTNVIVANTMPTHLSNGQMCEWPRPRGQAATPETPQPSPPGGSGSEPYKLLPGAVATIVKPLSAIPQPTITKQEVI

[5] = target: Nuclear receptor subfamily 2 group E member 1 (Homo sapiens) (UniProt Q9Y466); assay: Selectivity interaction (Reporter gene assay) EUB0000566a NR2E1
Sequence of Nuclear receptor subfamily 2 group E member 1 (Homo sapiens) (Q9Y466 whole entry): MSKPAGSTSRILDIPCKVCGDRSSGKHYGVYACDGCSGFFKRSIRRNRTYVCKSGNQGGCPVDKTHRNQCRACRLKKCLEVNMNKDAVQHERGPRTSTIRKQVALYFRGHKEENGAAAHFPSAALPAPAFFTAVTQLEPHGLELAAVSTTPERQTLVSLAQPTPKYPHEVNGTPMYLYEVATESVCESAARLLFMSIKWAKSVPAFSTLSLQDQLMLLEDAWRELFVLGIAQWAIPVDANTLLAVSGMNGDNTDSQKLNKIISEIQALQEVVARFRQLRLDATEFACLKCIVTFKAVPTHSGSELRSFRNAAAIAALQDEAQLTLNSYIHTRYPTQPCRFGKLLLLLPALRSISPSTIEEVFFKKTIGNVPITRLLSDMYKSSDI

[6] = target: T3, Nuclear receptor subfamily 2 group C member 1 (Homo sapiens) (UniProt P13056); assay: Selectivity interaction (Reporter gene assay) EUB0000566a NR2C1
T3 sequence (whole entry): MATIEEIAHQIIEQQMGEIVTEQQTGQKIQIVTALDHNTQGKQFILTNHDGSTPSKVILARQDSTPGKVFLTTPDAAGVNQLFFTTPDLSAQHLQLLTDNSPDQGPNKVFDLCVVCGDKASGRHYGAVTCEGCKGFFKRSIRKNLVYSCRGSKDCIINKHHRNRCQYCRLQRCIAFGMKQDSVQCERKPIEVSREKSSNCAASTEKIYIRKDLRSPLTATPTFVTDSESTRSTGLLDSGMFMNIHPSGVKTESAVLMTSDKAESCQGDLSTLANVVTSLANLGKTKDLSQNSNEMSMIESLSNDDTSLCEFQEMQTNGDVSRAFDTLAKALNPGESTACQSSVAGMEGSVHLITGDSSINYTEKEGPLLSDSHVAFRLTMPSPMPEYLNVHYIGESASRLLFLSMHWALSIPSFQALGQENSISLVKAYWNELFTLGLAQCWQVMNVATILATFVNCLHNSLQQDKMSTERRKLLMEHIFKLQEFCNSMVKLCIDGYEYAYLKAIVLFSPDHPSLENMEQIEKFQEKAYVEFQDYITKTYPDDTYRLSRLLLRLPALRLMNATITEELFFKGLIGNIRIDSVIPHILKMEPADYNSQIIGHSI

[7] = target: T4, Alpha trans-inducing protein (Human alphaherpesvirus 1) (UniProt A0A5J6DW59); assay: Selectivity interaction (Reporter gene assay) EUB0000566a UL48
T4 sequence (A0A5J6DW59 as listed by the source): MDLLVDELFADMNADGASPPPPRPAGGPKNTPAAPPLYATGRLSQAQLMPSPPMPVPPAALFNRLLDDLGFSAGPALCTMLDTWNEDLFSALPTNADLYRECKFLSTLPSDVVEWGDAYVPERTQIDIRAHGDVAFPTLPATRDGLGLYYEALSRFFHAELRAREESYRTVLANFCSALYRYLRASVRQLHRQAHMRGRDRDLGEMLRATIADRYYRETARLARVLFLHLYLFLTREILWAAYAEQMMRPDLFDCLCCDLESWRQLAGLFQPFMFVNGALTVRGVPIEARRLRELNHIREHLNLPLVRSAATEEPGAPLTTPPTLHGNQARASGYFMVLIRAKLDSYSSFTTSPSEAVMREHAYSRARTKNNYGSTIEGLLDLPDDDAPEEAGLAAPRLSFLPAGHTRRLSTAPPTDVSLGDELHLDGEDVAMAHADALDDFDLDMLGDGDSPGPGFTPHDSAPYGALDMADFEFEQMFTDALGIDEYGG

[8] = target: T4, Alpha trans-inducing protein (Human alphaherpesvirus 1); assay: Selectivity interaction (Reporter gene assay) EUB0000555a UL48
[9] = target: Nuclear receptor subfamily 2 group E member 1 (Homo sapiens) (UniProt Q9Y466); assay: Selectivity interaction (Reporter gene assay) EUB0000555a NR2E1
[10] = target: Steroidogenic factor 1 (Homo sapiens) (UniProt Q13285); assay: Selectivity interaction (Reporter gene assay) EUB0000555a NR5A1
[11] = target: Nuclear receptor subfamily 4immunitygroup A member 1 (Homo sapiens) (UniProt P22736); assay: Selectivity interaction (Reporter gene assay) EUB0000555a NR4A1
[12] = target: T3, Nuclear receptor subfamily 2 group C member 1 (Homo sapiens); assay: Selectivity interaction (Reporter gene assay) EUB0000555a NR2C1
[13] = target: T2, Hepatocyte nuclear factor 4-alpha (Homo sapiens); assay: Selectivity interaction (Reporter gene assay) EUB0000555a HNF4A
[14] = target: T1, Retinoic acid receptor RXR-alpha (Homo sapiens); assay: Selectivity interaction (Reporter gene assay) EUB0000555a RXRA
[15] = target: T4, Alpha trans-inducing protein (Human alphaherpesvirus 1); assay: Selectivity interaction (Reporter gene assay) EUB0000564a UL48
[16] = target: T1, Retinoic acid receptor RXR-alpha (Homo sapiens); assay: Selectivity interaction (Reporter gene assay) EUB0000564a RXRA; details: reference bexarotene 1 uM, Selectivity number of off-targets 0.0, Selectivity number of targets 1.0, Source Knowledge inhouse
[17] = target: Nuclear receptor subfamily 4immunitygroup A member 1 (Homo sapiens) (UniProt P22736); assay: Selectivity interaction (Reporter gene assay) EUB0000564a NR4A1
[18] = target: Steroidogenic factor 1 (Homo sapiens) (UniProt Q13285); assay: Selectivity interaction (Reporter gene assay) EUB0000564a NR5A1
[19] = target: Nuclear receptor subfamily 2 group E member 1 (Homo sapiens) (UniProt Q9Y466); assay: Selectivity interaction (Reporter gene assay) EUB0000564a NR2E1
[20] = target: T3, Nuclear receptor subfamily 2 group C member 1 (Homo sapiens); assay: Selectivity interaction (Reporter gene assay) EUB0000564a NR2C1
[21] = target: T2, Hepatocyte nuclear factor 4-alpha (Homo sapiens); assay: Selectivity interaction (Reporter gene assay) EUB0000564a HNF4A
[22] = target: T2, Hepatocyte nuclear factor 4-alpha (Homo sapiens); assay: Selectivity interaction (Reporter gene assay) EUB0000568a HNF4A
[23] = target: T4, Alpha trans-inducing protein (Human alphaherpesvirus 1); assay: Selectivity interaction (Reporter gene assay) EUB0000568a UL48
[24] = target: Steroidogenic factor 1 (Homo sapiens) (UniProt Q13285); assay: Selectivity interaction (Reporter gene assay) EUB0000568a NR5A1
[25] = target: T3, Nuclear receptor subfamily 2 group C member 1 (Homo sapiens); assay: Selectivity interaction (Reporter gene assay) EUB0000568a NR2C1; details: screened at recom. conc., Selectivity number of off-targets 2.0, Selectivity number of targets 5.0, Source Knowledge inhouse
[26] = target: T1, Retinoic acid receptor RXR-alpha (Homo sapiens); assay: Selectivity interaction (Reporter gene assay) EUB0000568a RXRA; details: reference bexarotene 1 uM, Selectivity number of off-targets 0.0, Selectivity number of targets 1.0, Source Knowledge inhouse
[27] = target: Nuclear receptor subfamily 2 group E member 1 (Homo sapiens) (UniProt Q9Y466); assay: Selectivity interaction (Reporter gene assay) EUB0000568a NR2E1; details: screened at recom. conc., Selectivity number of off-targets 2.0, Selectivity number of targets 5.0, Source Knowledge inhouse
[28] = target: Nuclear receptor subfamily 4immunitygroup A member 1 (Homo sapiens) (UniProt P22736); assay: Selectivity interaction (Reporter gene assay) EUB0000568a NR4A1
[29] = target: Steroidogenic factor 1 (Homo sapiens) (UniProt Q13285); assay: Selectivity interaction (Reporter gene assay) EUB0000551aCl NR5A1
[30] = target: T2, Hepatocyte nuclear factor 4-alpha (Homo sapiens); assay: Selectivity interaction (Reporter gene assay) EUB0000551aCl HNF4A
[31] = target: Nuclear receptor subfamily 4immunitygroup A member 1 (Homo sapiens) (UniProt P22736); assay: Selectivity interaction (Reporter gene assay) EUB0000551aCl NR4A1
[32] = target: T4, Alpha trans-inducing protein (Human alphaherpesvirus 1); assay: Selectivity interaction (Reporter gene assay) EUB0000551aCl UL48
[33] = target: T1, Retinoic acid receptor RXR-alpha (Homo sapiens); assay: Selectivity interaction (Reporter gene assay) EUB0000551aCl RXRA; details: reference bexarotene 1 uM, Selectivity number of off-targets 0.0, Selectivity number of targets 1.0, Source Knowledge inhouse
[34] = target: T3, Nuclear receptor subfamily 2 group C member 1 (Homo sapiens); assay: Selectivity interaction (Reporter gene assay) EUB0000551aCl NR2C1
[35] = target: Nuclear receptor subfamily 2 group E member 1 (Homo sapiens) (UniProt Q9Y466); assay: Selectivity interaction (Reporter gene assay) EUB0000551aCl NR2E1

Sequence of Steroidogenic factor 1 (Homo sapiens) (Q13285 whole entry): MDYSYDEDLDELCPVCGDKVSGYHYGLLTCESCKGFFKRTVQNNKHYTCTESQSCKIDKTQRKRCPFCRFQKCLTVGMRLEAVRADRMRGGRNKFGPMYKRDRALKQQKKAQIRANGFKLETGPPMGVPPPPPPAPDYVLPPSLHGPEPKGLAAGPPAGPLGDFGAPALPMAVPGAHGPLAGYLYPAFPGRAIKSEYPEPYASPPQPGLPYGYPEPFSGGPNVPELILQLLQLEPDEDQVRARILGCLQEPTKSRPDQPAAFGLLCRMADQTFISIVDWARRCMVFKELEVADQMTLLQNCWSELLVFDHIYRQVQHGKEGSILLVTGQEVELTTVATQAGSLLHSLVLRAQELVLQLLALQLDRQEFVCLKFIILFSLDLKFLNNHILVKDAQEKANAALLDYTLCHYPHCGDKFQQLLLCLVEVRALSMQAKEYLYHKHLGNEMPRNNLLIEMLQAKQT

SMILES: CC1(C)CCC(C)(C)c2cc(NC(=O)c3ccc(C(=O)O)cc3)ccc21
Remaining activity [1]: 0.902
Fold activation [2]: 1.31
Relative activation [3]: 0.52%
Fold activation [4]: 0.997
Remaining activity [5]: 0.763
Remaining activity [6]: 0.903
P-value [7]: 2.26e-06

SMILES: COc1ccc(-c2ccc3cc(C(=O)O)ccc3c2)cc1C12CC3CC(CC(C3)C1)C2
P-value [15]: 0.00282
Relative activation [16]: 0.848%
Fold activation [17]: 1.11
Remaining activity [18]: 0.896
Remaining activity [19]: 0.926
Fold activation [20]: 1.03
Fold activation [21]: 1

SMILES: Cc1cccc(CN2CCN(C(c3ccccc3)c3ccc(Cl)cc3)CC2)c1 (stereo not given)
Remaining activity [29]: 0.814
Fold activation [30]: 1
Fold activation [31]: 1.12
P-value [32]: 0.00398
Relative activation [33]: 0.534%
Fold activation [34]: 1.14
Fold activation [35]: 1.01

Further lines, results first:

P-value [8]: 8.08e-06
Fold activation [9]: 1.03
Remaining activity [10]: 0.79
Remaining activity [11]: 0.804
Remaining activity [12]: 0.695
Remaining activity [13]: 0.559
Relative activation [14]: 0.715%
SMILES: N[C@@H](Cc1cc(I)c(Oc2ccc(O)c(I)c2)c(I)c1)C(=O)O

Remaining activity [22]: 0.803
P-value [23]: 0.0191
Fold activation [24]: 1.34
Fold activation [25]: 1.5
Relative activation [26]: 0.61%
Fold activation [27]: 2.03
Fold activation [28]: 1.24
SMILES: O=C(O)c1ccc2cc(-c3ccc(O)c(C45CC6CC(CC(C6)C4)C5)c3)ccc2c1
